Literature values in US6403554B2, “Polyunsaturated fatty acid derivatives and their use” (Ardenia Investments Ltd., priority 1998, dated 2002).

Assays:
[1] = system: human AFP (alpha-fetoprotein); conditions: International Application PCT/EP99/04201; cited from earlier work
AFP = biological target: T1, AFP (Homo sapiens, UniProt P02771); conditions: International Application PCT/EP99/04201; cited from earlier work
T1 construct: from tissue; host or cells: human cord blood
T1 sequence (P02771 19-609): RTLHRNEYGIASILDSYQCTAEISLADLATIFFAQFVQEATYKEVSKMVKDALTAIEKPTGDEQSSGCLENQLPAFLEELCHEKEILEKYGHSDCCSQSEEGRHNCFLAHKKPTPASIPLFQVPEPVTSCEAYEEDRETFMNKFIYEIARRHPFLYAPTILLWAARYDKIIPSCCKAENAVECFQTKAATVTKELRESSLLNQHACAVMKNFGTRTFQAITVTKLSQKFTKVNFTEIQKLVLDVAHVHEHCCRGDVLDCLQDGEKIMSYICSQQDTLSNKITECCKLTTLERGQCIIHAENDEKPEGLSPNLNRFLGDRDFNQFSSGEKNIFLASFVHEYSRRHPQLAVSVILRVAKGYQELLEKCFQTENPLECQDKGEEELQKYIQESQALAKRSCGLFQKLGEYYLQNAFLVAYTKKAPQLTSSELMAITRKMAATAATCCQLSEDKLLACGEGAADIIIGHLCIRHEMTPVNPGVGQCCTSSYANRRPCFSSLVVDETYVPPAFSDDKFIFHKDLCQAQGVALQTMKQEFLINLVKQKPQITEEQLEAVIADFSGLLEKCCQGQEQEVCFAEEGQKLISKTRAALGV

rats = conditions: injected into rats; cited from earlier work

In the case of CCCCC/C=C\C/C=C\C/C=C\C/C=C\CCCC(=O)NCCOP(=O)(O)O [Compound 5, N-(cis-5,8,11,14-eicosatetraenoyl)-O-phospho-2-aminoethanol], the “molecules of N-AAP in micelle linked to AFP” value [1] is listed as “up to 300 molecules”.

In the case of CCCCC/C=C\C/C=C\C/C=C\C/C=C\CCCC(=O)NCCOP(=O)(O)O [Compound 5, N-arachidonoyl-o-phospho-2-aminoethanol], the “Molecules of compound in the micelle reversibly linked to AFP” value (AFP) is given as “up to 300 molecules”.

For CCCCCCCC/C=C\CCCCCCCC(N)=O [cis-9,10-octadecenoamide], the physiological sleep (rats) is listed as “induced physiological sleep”.
